The assay deals with C. albicans ATCC 24433. Nature of the assay: Checkerboard MIC assay, FICI. The class given is cell-based, Candida albicans. Particulars: combination with Compound 1; C. albicans ATCC 24433. The source says: The following assay was used to determine the minimum inhibitory concentration (MIC) and fractional inhibitory concentration index (FICI) for combinations of an antifungal agent and a glycopeptide antibacterial agent. This assay and methods for calculating FICI are well known in the art. See, for example, Eliopoulos, E. G. and R. Moellering, Jr. “Antimicrobial Combinations” in Antibiotics in Laboratory Medicine, edited by V. Lorian, 4th Ed., Williams & Wilkins, Baltimore, MD, pp. 330-396 (1996); […] et al., Antimicrobial Agents and Chemotherapy 47(4):1416-1418 (2003); or […] et al., Antimicrobial Agents and Chemotherapy 46(10):3323-3326 (2002). Procedures, protocols, supplies and equipment used in this assay follow the recommendations approved and published by the National Committee for Clinical Laboratory Standards (NCCLS), Wayne, Pa. as described in NCCLS 2003, “Reference Method for Broth Dilution Antimicrobial Susceptibility Tests for Bacteria that Grow Aerobically; Approved Standard” (NCCLS document M7-A6); NCCLS 2002, “Reference Method for Broth Dilution Antifungal Susceptibility Tests of Filamentous Fungi that Grow Aerobically; Approved Standard” (NCCLS document M38-A); and NCCLS 2002 “Reference Method for Broth Dilution Antifungal Susceptibility Tests of Yeast; Approved Standards-2nd Edition” (NCCLS document M27-A2). Using a checkerboard method, a 2-fold dilution 100× final concentration master plate was prepared using a 96-well U-shape microtiter plate and an appropriate solvent. In the “checkerboard” method, a microtiter plate is divided into “columns” in which each well in the column contains the same amount of an antifungal agent (Compound A) being diluted along the x-axis, and “rows” in which each well in the row contains the same amount of a glycopeptide antibacterial agent (Compound B) being diluted on the y-axis. Also included is a row (or column) for Compound A or B alone. The dilutions used in the checkerboard are exponential (by powers of two). The result is that each well in the microtiter plate contains a unique concentration of the two compounds being tested. […] After mixing, 100 μL of 2× drug combinations were distributed into 96-well microtiter plates. […] Compound A was not added to Column 12, so Column 12 contained only Compound B. Compound B was diluted from row A starting at 6,400 μg/mL down to row G (100 μg/mL). Wells in Row A contained a final concentration of 64 μg/mL of Compound B; Row B contained a final concentration of 32 μg/mL of Compound B; Row C contained a final concentration of 16 μg/mL of Compound B; etc. Compound B was not added to Row H, so Row H only contained Compound A. […] The MIC of the glycopeptide antibacterial agent determined from this experiment was used in FIC calculations. […] RPMI-1640 without sodium bicarbonate media (GIBCO-BRL, Carlsbad, Calif.), an enriched media formulated for mammalian cells, was used according to the NCCLS guidelines for yeast and filamentous fungi susceptibility testing. The medium was buffered with 0.165 M 3-[N-Morpholino]propanesulfonic acid (MOPS) supplemented with 20 g/L glucose and pH adjusted to 7.0 with hydrogen chloride. Sabouraud Dextrose Agar ([…] plates, and Potato Dextrose Agar (PDA) plates were purchased from Hardy Diagnostic (Santa Maria, Calif.). Yeast cultures were started from -80° C. frozen stock streaked on […] incubated at 35° C. under aerobic conditions for 24 h. The […] in the refrigerator for up to 2 weeks and used regularly as a starting culture. About 24 to 48 h before each assay was run, yeasts were streaked on SDA plates for isolated colonies. To prepare the inoculum, from one to four colonies were resuspended in 5 mL of saline, and vortexed for 15 sec. […] For most yeast and mold cultures, the optical density (OD) of the suspension was adjusted to 0.11 in saline to provide 0.4×10^6 CFU/mL. However, for Fusarium moniliforme and Pseudallescheria boydii the OD of the suspension was adjusted to OD=0.17 to provide 0.4×10^6 CFU/mL. […]

Molecules are shown by their SMILES.

Take `C[C@@H]1[C@H](O)[C@@H](C)/C=C/C=C/C=C/C=C/C=C/C=C/C=C/[C@H](O[C@@H]2O[C@H](C)[C@@H](O)[C@H](N)[C@@H]2O)C[C@@H]2O[C@](O)(C[C@@H](O)C[C@@H](O)[C@H](O)CC[C@@H](O)C[C@@H](O)CC(=O)O[C@H]1C)C[C@H](O)[C@H]2C(=O)O` [Amphotericin B]: the FICI is 0.19.
Take `C[C@@H]1[C@H](O)[C@@H](C)/C=C/C=C/CC/C=C/C=C/C=C/C=C/C(O[C@H]2O[C@H](C)[C@@H](O)[C@H](N)[C@@H]2O)CC2O[C@](O)(CC(O)C(O)CCC(O)CC(O)CC(O)CC(=O)O[C@H]1C)CC(O)C2C(=O)O` (some centres unmarked) [Nystatin]: the FICI is listed as 0.31.

These data come from US7521418B2, “Use of a polyene macrolide antifungal agent in combination with a glycopeptide antibacterial agent” (Theravance, Inc., priority 2003, dated 2009).
